Source: patent US5468758A, “Crystalline forms of endo-2,3-dihydro-N-(8-methyl)-8-azabicyclo[3.2.1]oct-3-yl)-2-oxo-1H-benz imidazole-1-carboxamides” (Boehringer Ingelheim Italia S.p.A., priority 1992, dated 1995)
Where a name gives a salt, the structure may show the parent alone. Read-outs that look alike come from different tables or passages of the source.

What was measured:
Assay type in all cases: physicochemical
[1] = Long-term real time stability tests in tablets and capsules; details: tablets and capsules in PVC/PVDC blister with aluminium foil
Text: (§1) Drug stability in these final compositions may be measured in accelerated stability tests or in long term real time stability tests. In accelerated stability tests, the above pharmaceutical compositions are exposed at high temperatures at different degrees of relative humidity for a period of time. Such tests are considered to be indicative of the stability of the composition at normal conditions. In long term real time stability studies the final compositions are exposed to normal conditions of storage at ambient temperatures at different degrees of relative humidity.
Tablets and capsules are packaged in PVC/PVDC blister with aluminium foil

[2] = Accelerated stability tests in tablets and capsules; details: tablets and capsules in PVC/PVDC blister with aluminium foil
Text: as §1
(*)according to H. Leven Berger Pharm. Act. Helv. 50 (1975) 88-91 it is
equivalent to 2 years storage at room temperature. Tablets and capsules
are packaged in PVC/PVDC blister with aluminium foil.
(*)according to "Guidelines for stability studies for Human Drugs and
Biologics" (1987) (USA/FDA) it is equivalent to 2 years at room
temperature. Tablets and capsules are packaged in PVC/PVDC blister with […]

[3] = Moisture sorption/desorption studies (hygrostat, storage at different temperatures and relative humidity); set-up: water content (Table VI): unit not given here; details: for moisture absorption: different temperatures and relative humidity, in words
Method: The determination of the sorption isotherms was carried out in a hygrostat.
At suitable intervals, the sample was weighed by means of a sample balance. The atmosphere in the hygrostat and therefore around the sample of compound 1a (1b) and 2a (2b) was conditioned and kept by a saturated solutions of a suitable salt:
Na Cl saturated solution 75.3% RH/25° C. 74.8% RH/37° C.
KNO3 saturated solution 93.7% RH/25° C. 90.0% RH/37° C.
At the end of the experiment, after completing the hysteresis, that is the adsorption--desorption cycle of humidity, the compound was assayed for the title and degradation products by TLC and HPLC, the physical state by DSC and water content by TGA.

[4] = Moisture content during tablet manufacturing (mixing and tableting); details: for Moisture content: % on the weight of compound 1a
Text: As a consequence, storage of compound 2a may be effected in normal conditions and no particular precautions are needed to avoid exposure to moisture. The titer of compound 2a, when it is stored in normal conditions, is therefore maintained at difference with compound 1a which, in the same conditions, may show different titles according to the water content. The hygroscopicity may also influence the drug title immediately after the manufacturing of tablets. In fact during the process of manufacturing the drug exposed at normal ambient conditions where it can take up moisture.

[5] = Milling studies (FRITSCH Pulverisette 14 Rotor Speed Mill)
Method: The milling process was performed by the FRITSCH Pulverisette 14 Rotor Speed Mill supplied with circular sieve stainless steel with trapezoidal 0.080 mm diameter openings. The samples were passed through the mill twice at 20.000 rpm motor speed. The sample is assayed for title and degradation products by TLC and HPLC, physical state by DSC, water content by TGA, particle size distribution by Mercury Instrusion Porosimetry. The mi 11ed compounds are formulated in capsules and tablets at very low dose level (0.5 mg) by direct mixing and direct compression manufacturing method, respectively.

Compound: CN1C2CCC1CC(NC(=O)n1c(=O)[nH]c3ccccc31)C2 (stereo not drawn) [Compound 1a, endo-2,3-dihydro-N-(8-methyl-8-azabicyclo[3.2.1]oct-3-yl)-2-oxo-1H-benzimidazole-1-carboxamide, reference compound]
- % degradation ([1]; 3 months/40° C., 129600 min): 0.6%
- % degradation ([1]; 6 months/30° C.-70% RH, 259200 min): 0.5%
- % degradation ([1]; 6 months/40° C., 259200 min): 1.1%
- % degradation ([2]; 1 month/55° C., 43200 min): 2.0%
- degraded at 2160 h ([2]; tablets and capsules, 3 months/40° C.-75% RH, read-out: % degradation): 0.8%
- degraded at 2160 h ([2]; tablets and capsules, 3 months/55° C., read-out: % degradation): 3.2%
- degraded at 4320 h ([2]; tablets and capsules, 6 months/40° C.-75% RH, read-out: % degradation): 1.7%
- water content (Table III) ([3]; 37° C., 75% RH, 2 h): 0.34%
- water content (Table III) ([3]; 37° C., 75% RH, 4 h): 0.39%
- water content (Table III) ([3]; 37° C., 75% RH, 6 h): 0.59%
- water content (Table III) ([3]; 37° C., 75% RH, 1 d): 1.95%
- water content (Table III) ([3]; 37° C., 75% RH, 5 d): 5.09%
- water content (Table III) ([3]; 37° C., 75% RH, 9 d): 5.13%
- water content (Table III) ([3]; 37° C., 75% RH, 15 d): 5.13%
- water content (Table III) ([3]; 37° C., 94% RH, 2 h): 1.93%
- water content (Table III) ([3]; 37° C., 94% RH, 4 h): 3.41%
- water content (Table III) ([3]; 37° C., 94% RH, 6 h): 4.68%
- water content (Table III) ([3]; 37° C., 94% RH, 1 d): 5.04%
- water content (Table III) ([3]; 37° C., 94% RH, 5 d): 5.06%
- water content (Table III) ([3]; 37° C., 94% RH, 9 d): 5.06%
- water content (Table III) ([3]; 37° C., 94% RH, 15 d): 5.04%
- water content (Table III) ([3]; Room Temperature, 75% RH, 2 h): 0.68%
- water content (Table III) ([3]; Room Temperature, 75% RH, 4 h): 0.74%
- water content (Table III) ([3]; Room Temperature, 75% RH, 6 h): 0.78%
- water content (Table III) ([3]; Room Temperature, 75% RH, 1 d): 1.25%
- water content (Table III) ([3]; Room Temperature, 75% RH, 4 d): 2.54%
- water content (Table III) ([3]; Room Temperature, 75% RH, 8 d): 3.5%
- water content (Table III) ([3]; Room Temperature, 75% RH, 20 d): 4.59%
- water content (Table III) ([3]; Room Temperature, 75% RH, 40 d): 4.95%
- water content (Table III) ([3]; Room Temperature, 94% RH, 2 h): 1.28%
- water content (Table III) ([3]; Room Temperature, 94% RH, 4 h): 1.92%
- water content (Table III) ([3]; Room Temperature, 94% RH, 6 h): 2.41%
- water content (Table III) ([3]; Room Temperature, 94% RH, 1 d): 5.33%
- water content (Table III) ([3]; Room Temperature, 94% RH, 4 d): 5.39%
- water content (Table III) ([3]; Room Temperature, 94% RH, 8 d): 5.39%
- water content (Table III) ([3]; Room Temperature, 94% RH, 20 d): 5.4%
- water content (Table III) ([3]; Room Temperature, 94% RH, 40 d): 5.42%
- moisture absorption [3]: marked tendency to moisture absorption
- Moisture content ([4]; Final (b), tableting): 1.02%
- Moisture content ([4]; Intermediate (a), mixing): 0.66%
- Moisture content ([4]; Start): 0.62%
- water content during manufacturing ([4]; mixing (a) and tableting (b) phases, in words): increases its water content
- particle size reduction (milling efficiency) ([5]; Mercury Porosimetry Analysis, in words): same rank order
- percentage of degradation products after milling ([5]; rotor speed of 20,000 rpm): 0.65%

Compound: CCn1c(=O)n(C(=O)N[C@H]2C[C@H]3CC[C@@H](C2)N3C)c2ccccc21 [Compound 1b, endo-3-ethyl-2,3-dihydro-N-(8-methyl-8-azabicyclo-[3.2.1]oct-3-yl)-2-oxo-1H-benzimidazole-1-carboxamide hydrochloride, reference compound]
- water content (Table VI) ([3]; 37° C., 49.2% RH, 2 h, hydrochloride): 2.18
- water content (Table VI) ([3]; 37° C., 49.2% RH, 4 h, hydrochloride): 2.58
- water content (Table VI) ([3]; 37° C., 49.2% RH, 6 h, hydrochloride): 3.01
- water content (Table VI) ([3]; 37° C., 49.2% RH, 1 d, hydrochloride): 4.07
- water content (Table VI) ([3]; 37° C., 49.2% RH, 4 d, hydrochloride): 4.81
- water content (Table VI) ([3]; 37° C., 49.2% RH, 10 d, hydrochloride): 4.82
- water content (Table VI) ([3]; 37° C., 49.2% RH, 30 d, hydrochloride): 4.81
- water content (Table VI) ([3]; 37° C., 49.2% RH, time 0, hydrochloride): 1.13
- water content (Table VI) ([3]; 37° C., 74.8% RH, 2 h, hydrochloride): 4.99
- water content (Table VI) ([3]; 37° C., 74.8% RH, 4 h, hydrochloride): 4.93
- water content (Table VI) ([3]; 37° C., 74.8% RH, 6 h, hydrochloride): 4.97
- water content (Table VI) ([3]; 37° C., 74.8% RH, 1 d, hydrochloride): 4.90
- water content (Table VI) ([3]; 37° C., 74.8% RH, 4 d, hydrochloride): 4.92
- water content (Table VI) ([3]; 37° C., 74.8% RH, 10 d, hydrochloride): 4.85
- water content (Table VI) ([3]; 37° C., 74.8% RH, 30 d, hydrochloride): 4.81
- water content (Table VI) ([3]; 37° C., 74.8% RH, time 0, hydrochloride): 1.13
- moisture absorption ([3]; hydrochloride): marked tendency to moisture absorption
- humidity content ([5]; after milling, hydrochloride): 2.32%
- humidity content ([5]; before milling): 0.87%
